In US20220402916A1, “SMALL MOLECULE INHIBITORS OF KRAS G12C MUTANT” (Merck Sharp & Dohme Corp., priority 2019, published 2022):

Legend:
NCI-H358 cells = assay: Cellular phospho-ERK assay; assay type: cell-based; conditions: Homo sapiens, NCI-H358, 2 h, NCI-H358 cells; 2 hour incubation; ratio of p-Erk vs total Erk; read-out: IC50
Experimental: NCI-H358 cells (ATCC® CRL-5807™) were cultured in T150 flask in growth medium (RPMI medium 1640-GlutaMAX™-1 (ThermoFisher Scientific 61870) containing 10% fetal bovine serum (ThermoFisher Scientific 10091148)). The cells were harvested in growth medium after TrypLE (ThermoFisher scientific 12604021) digestion and were seeded in 384-well collagen coated cell culture plate (Corning 356702) at a density of 15,000 cells/well, and incubated at 37° C., 5% CO2 overnight. The compound dose-response titrations were prepared and appropriate amounts of compounds were dispensed in 384-well intermediate plate using Echo 550 liquid handler. RPMI medium 1640-GlutaMAX™-I were added to the intermediate plate and transferred to 384-well cell culture plate, which was incubated at 37° C., 5% CO2 for 2 hours. After removal of medium from the plate, cells were lysed in lysis buffer from Alpha SureFire® Ultra™ Multiplex p-Erk and total Erk assay kit (PerkinElmer MPSU-PTERK) containing Halt™ Protease and Phosphotase inhibitor cocktail (ThermoFisher Scientific 78446) at room temperature with constant shaking at 300 rpm for 30 minutes. The cell lysates were then transferred to OptiPlate-384 plate (PerkinElmer 6005620) and the phosphorylation of Erk and total Erk levels were detected by Alpha SureFire Ultra Multiplex p-Erk kit (PerkinElmer MPSU-PTERK) following the manufacturer's protocol. Assay plates were read on an EnVision Multimode Plate Reader (PerkinElmer) and the ratio of p-Erk vs total Erk in each well was used as the final readout. Dose response curves were analyzed using a 4-parameter logistic model to calculate IC50 values using spotfire software.

[1] = molecular target: T1, Biotinylated KRAS G12C protein (Homo sapiens, UniProt P01116, C118S/C51S/C80L/G12C); assay: SOS-catalyzed nucleotide exchange assay; assay type: biochemical; conditions: for IC50: apparent potency, preincubation time of 60 minutes prior to addition of SOS
T1 construct: 183 amino acids; biotin on K10
Experimental: Compounds are added to this complex, and then after 60 minute incubation time the mixture is treated with recombinant SOS protein and unlabeled GTP. Small molecule inhibitors stabilize the Bodipy-GDP complex whereas the untreated protein rapidly exchanges Bodipy-GDP for unlabeled GTP resulting in reduced TR-FRET signal. […] This mixture is then further diluted to 90 nM in an assay buffer (20 mM HEPES, 150 mM sodium chloride, 10 mM magnesium chloride, and 0.005% Tween) containing 15 nM of Terbium-Streptavidin (Invitrogen, catalog #PV3577) and 900 nM of Bodipy-GDP and incubated at room temperature for six hours. […] Each test compound (10 mM stock in DMSO) is diluted in DMSO to make a 10-point, 3-fold dilution series in a 384-well low dead volume microplate (Labcyte, catalog #LP-0200). Once titrations are made, 10 nL of the diluted compounds is acoustically dispensed into a 384-well assay plate (Corning, catalog #3820) using an Echo 550 (Labcyte). […] Each well then receives 3 μL of 240 nM recombinant human SOS protein and 9 mM GTP (Sigma, G8877) in assay buffer and is incubated at room temperature for 60 minutes. The time-resolved fluorescence resonance energy transfer signal for the assay plate is measured on an Envision (PerkinElmer) plate reader: Excitation filter=340 nm; emission1=495 nm; emission2=520 nm; dichroic mirror=D400/D505; delay time=100 μs. The signal of each well is determined as the ratio of the emission at 520 nm to that at 495 nm. […] The apparent effect as a function of compound concentration is fit to a four parameter logistic equation.

T1 sequence (P01116 with tags, fused parts or gaps isoform P01116-2 G12C/C51S/C80L/C118S): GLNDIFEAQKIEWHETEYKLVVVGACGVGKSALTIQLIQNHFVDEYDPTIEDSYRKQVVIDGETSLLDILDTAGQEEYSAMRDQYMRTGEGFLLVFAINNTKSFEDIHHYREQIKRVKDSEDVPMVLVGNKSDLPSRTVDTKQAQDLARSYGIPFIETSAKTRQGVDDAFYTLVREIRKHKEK

| SMILES | IC50 (NCI-H358 cells) | IC50 [1] | inhibition at 10 µM ([1]; 10,000 nM, 60 minutes of preincubation prior to addition of SOS) |
| --- | --- | --- | --- |
| C=CC(=O)N1CCN(c2cc(C(=O)NC(CC)CN3CCCC3)nc3c2CCN(c2cccc4cccc(C)c24)C3)CC1 (racemic) [Compound 23, rac-4-(4-acryloylpiperazin-1-yl)-7-(8-methylnaphthalen-1-yl)-N-(1-(pyrrolidin-1-yl)butan-2-yl)-5,6,7,8-tetrahydro-1,7-naphthyridine-2-carboxamide] | 9770 nM | 90 nM | – |
| C=CC(=O)N1CCN(c2cc(C(=O)NC[C@]3(F)CCCNC3)nc3c2CCN(c2cccc4cccc(C)c24)C3)C[C@@H]1CC#N [Compound 107, 4-((S)-4-acryloyl-3-(cyanomethyl)piperazin-1-yl)-N-(((S)-3-fluoropiperidin-3-yl)methyl)-7-(8-methylnaphthalen-1-yl)-5,6,7,8-tetrahydro-1,7-naphthyridine-2-carboxamide] | 7350 nM | 54 nM | – |
| C=CC(=O)N1CCN(c2cc(C(=O)NCC3CCCCN3)nc3c2CCN(c2cccc4cccc(C)c24)C3)C[C@@H]1CC#N (mixture of isomers) [Compound 99, 4-((S)-4-acryloyl-3-(cyanomethyl)piperazin-1-yl)-7-(8-methylnaphthalen-1-yl)-N-(((R)-piperidin-2-yl)methyl)-5,6,7,8-tetrahydro-1,7-naphthyridine-2-carboxamide, as a mixture with 4-((S)-4-acryloyl-3-(cyanomethyl)piperazin-1-yl)-7-(8-methylnaphthalen-1-yl)-N-(((S)-piperidin-2-yl)methyl)-5,6,7,8-tetrahydro-1,7-naphthyridine-2-carboxamide] | 1740 nM | 8.3 nM | – |
| C=CC(=O)N1CCN(c2cc(C(=O)NC[C@@H]3CC(F)(F)CN3)nc3c2CCN(c2cccc4cccc(C)c24)C3)C[C@@H]1CC#N [Compound 80, 4-((S)-4-acryloyl-3-(cyanomethyl)piperazin-1-yl)-N-(((S)-4,4-difluoropyrrolidin-2-yl)methyl)-7-(8-methylnaphthalen-1-yl)-5,6,7,8-tetrahydro-1,7-naphthyridine-2-carboxamide] | 6360 nM | 91 nM | – |
| C=CC(=O)N1CCN(c2cc(C(=O)NCC3(N)CCOCC3)nc3c2CCN(c2cccc4cccc(C)c24)C3)C[C@@H]1CC#N [Compound 90, (S)-4-(4-acryloyl-3-(cyanomethyl)piperazin-1-yl)-N-((4-aminotetrahydro-2H-pyran-4-yl)methyl)-7-(8-methylnaphthalen-1-yl)-5,6,7,8-tetrahydro-1,7-naphthyridine-2-carboxamide] | 2340 nM | 21 nM | – |
| C=CC(=O)N1CCN(c2cc(C(=O)NCCN(C)C)nc3c2CCN(c2cccc4cccc(C)c24)C3)C[C@@H]1CC#N [Compound 64, (S)-4-(4-acryloyl-3-(cyanomethyl)piperazin-1-yl)-N-(2-(dimethylamino)ethyl)-7-(8-methylnaphthalen-1-yl)-5,6,7,8-tetrahydro-1,7-naphthyridine-2-carboxamide] | 106 nM | 2.7 nM | – |
| C=CC(=O)N1CCN(c2cc(C(=O)NC(CN)CN)nc3c2CCN(c2cccc4cccc(C)c24)C3)C[C@@H]1CC#N [Compound 87, (S)-4-(4-acryloyl-3-(cyanomethyl)piperazin-1-yl)-N-(1,3-diaminopropan-2-yl)-7-(8-methylnaphthalen-1-yl)-5,6,7,8-tetrahydro-1,7-naphthyridine-2-carboxamide] | 26700 nM | 15 nM | – |
| C=CC(=O)N1CCN(c2cc(C(=O)NC[C@H](C)N)nc3c2CCN(c2cccc4cccc(C)c24)C3)C[C@@H]1CC#N [Compound 86, 4-((S)-4-acryloyl-3-(cyanomethyl)piperazin-1-yl)-N—((S)-2-aminopropyl)-7-(8-methylnaphthalen-1-yl)-5,6,7,8-tetrahydro-1,7-naphthyridine-2-carboxamide] | 1650 nM | 11 nM | – |
| C=CC(=O)N1CCN(c2c(C)c(C(=O)N[C@H](C)CN(C)C)nc3c2CCN(c2cccc4cccc(C)c24)C3)C[C@@H]1CC#N (racemic) [Compound 85, 4-((S)-4-acryloyl-3-(cyanomethyl)piperazin-1-yl)-N—((R)-1-(dimethylamino)propan-2-yl)-3-methyl-7-(8-methylnaphthalen-1-yl)-5,6,7,8-tetrahydro-1,7-naphthyridine-2-carboxamide] | 3550 nM | 180 nM | – |
| C=CC(=O)N1CCN(c2cc(C(=O)NCC3CCCN3C)nc3c2CCN(c2cccc4cccc(C)c24)C3)C[C@@H]1CC#N (mixture of isomers) [Compound 82, 4-((S)-4-acryloyl-3-(cyanomethyl)piperazin-1-yl)-7-(8-methylnaphthalen-1-yl)-N-(((R)-1-methylpyrrolidin-2-yl)methyl)-5,6,7,8-tetrahydro-1,7-naphthyridine-2-carboxamide, as a mixture with 4-((S)-4-acryloyl-3-(cyanomethyl)piperazin-1-yl)-7-(8-methylnaphthalen-1-yl)-N-(((S)-1-methylpyrrolidin-2-yl)methyl)-5,6,7,8-tetrahydro-1,7-naphthyridine-2-carboxamide] | 324 nM | – | – |
| C=CC(=O)N1CCN(c2cc(C(=O)N[C@H]3CCCC[C@@H]3N)nc3c2CCN(c2cccc4cccc(C)c24)C3)CC1 [Compound 30, 4-(4-acryloylpiperazin-1-yl)-N-((1S,2S)-2-aminocyclohexyl)-7-(8-methylnaphthalen-1-yl)-5,6,7,8-tetrahydro-1,7-naphthyridine-2-carboxamide] | – | 4900 nM | – |
| C=CC(=O)N1CCN(c2cc(C(=O)N[C@@H]3CCCC[C@H]3N)nc3c2CCN(c2cccc4cccc(C)c24)C3)CC1 [Compound 31, 4-(4-acryloylpiperazin-1-yl)-N-((1R,2R)-2-aminocyclohexyl)-7-(8-methylnaphthalen-1-yl)-5,6,7,8-tetrahydro-1,7-naphthyridine-2-carboxamide] | – | 426 nM | – |
| C=CC(=O)N1CCN(c2cc(C(=O)NCC3CCN(C)C3)nc3c2CCN(c2cccc4cccc(C)c24)C3)CC1 (racemic) [Compound 58, rac-4-(4-acryloylpiperazin-1-yl)-7-(8-methylnaphthalen-1-yl)-N-((1-methylpyrrolidin-3-yl)methyl)-5,6,7,8-tetrahydro-1,7-naphthyridine-2-carboxamide] | – | 2480 nM | – |
| C=CC(=O)N1CCN(c2cc(C(=O)N3CCCCC3CN(C)C)nc3c2CCN(c2cccc4cccc(C)c24)C3)CC1 (racemic) [Compound 47, rac-1-(4-(2-(2-((dimethylamino)methyl)piperidine-1-carbonyl)-7-(8-methylnaphthalen-1-yl)-5,6,7,8-tetrahydro-1,7-naphthyridin-4-yl)piperazin-1-yl)prop-2-en-1-one] | – | 7750 nM | – |
| C=CC(=O)N1CCN(c2cc(C(=O)N3CCC[C@H]3CN3CCCC3)nc3c2CCN(c2cccc4cccc(C)c24)C3)CC1 [Compound 41, (S)-1-(4-(7-(8-methylnaphthalen-1-yl)-2-(2-(pyrrolidin-1-ylmethyl)pyrrolidine-1-carbonyl)-5,6,7,8-tetrahydro-1,7-naphthyridin-4-yl)piperazin-1-yl)prop-2-en-1-one] | – | 9590 nM | – |
| C=CC(=O)N1CCN(c2cc(C(=O)NCCN3CCOCC3)nc3c2CCN(c2cccc4ccccc24)C3)CC1 [Compound 9, 4-(4-acryloylpiperazin-1-yl)-N-(2-morpholinoethyl)-7-(naphthalen-1-yl)-5,6,7,8-tetrahydro-1,7-naphthyridine-2-carboxamide] | – | – | 33% |
| C=CC(=O)N1CCN(c2cc(C(=O)NC(CO)CN(C)C)nc3c2CCN(c2cccc4cccc(C)c24)C3)CC1 (racemic) [Compound 16, rac-4-(4-acryloylpiperazin-1-yl)-N-(1-(dimethylamino)-3-hydroxypropan-2-yl)-7-(8-methylnaphthalen-1-yl)-5,6,7,8-tetrahydro-1,7-naphthyridine-2-carboxamide] | – | 962 nM | – |
